Results taken from US20170049884A1, “USE OF ANTI-CCR5 ANTIBODIES IN GRAFT VERSUS HOST DISEASE” (CytoDyn Inc., priority 2014, published 2017).
Read-outs that look alike come from different tables or passages of the source.

Experiments:
[1] = single administration of TAK-652 solution; cited from earlier work
[2] = tested on: HIV-1JR-FL envelope-mediated membrane fusion; type: cell-based
Excerpt: HIV-1 envelope-mediated membrane fusion was examined using a fluorescence resonance energy transfer (RET) assay (Litwin et al. 1996) with modifications. Briefly, HeLa cells that stably express HIV-1JR-FL gp120/gp41 (Litwin et al. 1996) and CEM.NKR-CCR5 cells (NTH AIDS Research and Reference Reagent Program, (Spenlehauer et al. 2001; Trkola et al. 1999)) were labeled separately overnight with fluorescein octadecyl ester (F18; Molecular Probes, Eugene, Oreg.) and rhodamine octadecyl ester (R18; Molecular Probes), respectively. Cells were washed in phosphate-buffered saline containing 15% feral bovine serum (PBSF) and co-seeded at 15,000 cells/well into a 384-well plate. Inhibitors were added, and the plates were incubated in PBSF plus 0.5% dimethlysulfoxide (DMSO) for 4h at 37°C. prior to measurement of RET using a Victor^2 plate reader (Perkin-Elmer, Boston, Mass.) as previously described (Litwin et al. 1996). The CD4 mAb Leu3a was used as a control inhibitor, and percent inhibition was calculated as: (RET in the absence of inhibitor—RET in the presence of inhibitor)/(RET in the absence of inhibitor—RET in the presence of Leu3a)×100.
(§1) Experimental design and data analysis were based on the combination index (CI) method (Chou et al. 1991; Chou et al. 1984). Compounds were tested individually and in combination at a fixed molar ratio over a range of serial dilutions. […] The mutually exclusive CI formula was used for combinations of CCR5 inhibitors, while the mutually non-exclusive formula was utilized for combinations of inhibitors to distinct targets (Chou et al. 1991). Each test was conducted 4-12 times. Synergy, additivity and antagonism are indicated by CI<1, CI=1 and CI>1, respectively.
(§2) In the Bonferroni correction, P=.alpha,/h, where n is the number of comparisons. Twenty-two synergy comparisons (11 compounds×2 CI values) were made based on data generated in the membrane fusion assay, resulting in a corrected P value of0.0023.

[3] = tested on: reporter viruses pseudotyped with HIV-1JR-FL envelope; type: cell-based; conditions: HIV-1 Envelope JRFL; named 1st inhibitor with 2nd inhibitor PRO 140
Excerpt: (§3) A self-inactivating (SIN) vector was derived from the pNL4-3ΔEnv-luciferase vector (Dragic et al. 1996) by deleting 507 basepairs in the U3 region of the 3′ long terminal repeat (LTR) so as to remove the TATA, box and transcription factor binding sites. The human cytomegalovirus promoter was inserted upstream of the luciferase (luc) gene to enable expression of luciferase following integration.
(§4) SF162 envelopes were generated by cotransfection of 293T cells with the SIN vector and the appropriate pcDNA env-expressing vector as previously described (Dragic et al, 1996). […] Cultures were incubated for 72 h at 37°C. in DMEM containing 10% fetal bovine serum, […], 0.3 mg/mL geneticin, antibiotics, and 0.5% DMSO. Luciferase activity (relative light units or RLU) was measured using BrightGlo reagent (Promega, Madison, Wis.) according to the manufacturer's instructions. Percent inhibition was calculated as: (1-RLU in the presence of inhibitor/RLU in the absence of inhibitor)×100.
as §1, §2

[4] = tested on: reporter viruses pseudotyped with HIV-1SF162 envelope; type: cell-based; conditions: HIV-1 Envelope SF162; named 1st inhibitor with 2nd inhibitor PRO 140
Excerpt: as §3, §4, §1, §2

CCR5 [5] = target: T1, CCR5 (Homo sapiens, UniProt P51681); test: Competition binding: inhibition of PRO 140-PE binding to CEM.NKR-CCR5 cells; set-up: host or cells: CEM.NKR-CCR5 (transduced human T cell leukemia line); conditions: for inhibition of PRO 140-PE binding to CEM.NKR-CCR5 cells: in words
Protocol: Azide was added to block CCR5 internalization during the assay.

CCR5 [6] = target: T1, CCR5; test: Competition binding: inhibition of 3H-UK-427,857 binding to CEM.NKR-CCR5 cells; set-up: host or cells: CEM.NKR-CCR5 (transduced human T cell leukemia line)
Excerpt: The cells were washed in PBSA and lysed with 0.5N HCl prior to scintillation counting using a Wallac1410 instrument.

[7] = in vivo; cited from earlier work
[8] = tested on: HIV-1 Env-mediated fusion of HeLa-EnvJRFL and CEM NKR-CCR5 cells; test: HIV-1 RET cell-cell fusion assay (Part II, Example 1); type: cell-based; conditions: PRO 140 in combination with the named compound; for Mean CF: 1:1 molar ratio, Combination Index at IC50 value
Protocol: and then diluted in DMSO to 200× the final, concentration to be utilized in the antiviral assay. Serial dilutions of small molecules were conducted in DMSO. Subsequent dilutions were conducted in medium to achieve a final DMSO concentration in the assay of 0.5%. Peptides and mAbs were diluted in PBS in the absence of DMSO.
HeLa cells were engineered to express HIV-1 gp120/gp41 from the macrophage-tropic primary isolate JRFL as described (HeLa-EnvJRFL: Litwin et al., 1996). Briefly, the HIV-1LA1 Env gene was excised from the plasmid pMA243 (Dragic et al., 1992) and the HIV-1JRFL Env gene was inserted. The HIV-1.sub JRFL Env gene was amplified from the plasmid pUCFL112-1 (Koyanagi et al., 1987). The resulting plasmid, designated JR-FL-pMA243, was sequenced by standard methods and transfected into HeLa cells using lipofectin (Gibco BRL/Invitrogen, Carlsbad, Calif.). HeLa-Env.sub JRFL transfectants were selected in methotrexate (Sigma, St. Louis, Mo.) and cloned twice by limiting dilution. The transduced human T cell leukemia line CEM NKR-CCR5 cells were obtained from the NIH AIDS Research and Reference Program (Cat. No. 458).
The HIV-1 RET assay has been described in detail previously (Litwin et al., 1996). Briefly, fluorescein octadecyl ester (F18; Molecular Probes, Eugene, Oreg.; 5 mg/ml in ethanol), was diluted 1:800 in DMEM labeling medium (DMEM; Invitrogen, Carlsbad, Calif.) with 10% fetal bovine serum (FBS; HyClone, Logan, Utah) and adjusted to an A506 of 0.34.+−0.10%. Octadecyl rhodamine B chloride (R18; Molecular Probes; 10 mg/ml in ethanol) was diluted 1:2050 in labeling medium and adjusted to an A565 of 0.52.+−0.10%. Both dyes were further diluted 2-fold by addition to cells in T75-cm^2 flasks. HeLa-EnvJRFL and CEM NKR-CCR5 cells were incubated overnight in F18- and R18-containing culture medium, respectively. The following day, medium from HeLa-EnvJRFL, cells was removed and 10 ml of 0.5 mM EDTA was added and incubated at 37°C. for 5 min. […] The centrifugation/wash step was repeated twice, after which the cells were counted and concentrations adjusted to 1.5×10^6 cells/ml. […] The plates were then read on a fluorescence plate reader (Victor^2, Perkin Elmer, Boston, Mass.) using the excitation/emission filter combinations shown in Table 5.
The “% Inhibition” was calculated according to the following formula: […]
Fifty percent inhibition (IC50) values were determined by fitting the inhibition data with a non-linear, four-parameter, variable slope equation (GraphPad Prism 4.02; GraphPad Software, San Diego, Calif.). […]
Cooperative inhibition effects of drug combinations were determined by the method of Chou and Talalay (1984). […] Combination Index (CI) and Dose Reduction (DR) values were calculated according to the following formulas: […]

CCR5 lymphocytes = type: in vivo, human; conditions: 2 mg/kg
Protocol: Individuals were treated in sequential, dose-rising cohorts of 5 subjects (4 active and 1 placebo) each and evaluated for up to 120 days post-treatment. […] Safety assessments consisted of monitoring the following: vital signs (blood pressure, pulse, temperature, etc; hematology (hemoglobin, hematocrit, leukocytes, platelets, etc.); serum chemistries (AST/ALT, alkaline phosphatase, BUN, creatinine, etc.); urinalysis (pH, specific gravity, protein, glucose, leukocytes, etc.); and ECGs (12-lead).
Whole blood specimens were combined separately with the indicated phycoerythrin-labeled anti-CCR5 antibodies or with appropriate isotype-control antibodies. Erythocytes were lysed and leukocytes were stabilized using the ImmunoPrep Reagent System (Beckman Coulter), and the cells were analyzed on a TQ Prep™ flow cytometry workstation (Beckman Coulter). Data were expressed as the percent of CCR5 cells relative to all cells gated in the analysis.
For up to 60 days post-treatment, at the times indicated in FIG. 6, blood was collected and analyzed for CCR5 lymphocyte levels.

CCR5 [9] = target: T1, CCR5; test: RANTES-induced calcium mobilization in L1.2-CCR5 cells; type: cell-based; conditions: FIG. 4
Excerpt: Similar results were obtained for MIP-1.alpha, and MIP-1β

HIV-1 = conditions: repeated administration; cited from earlier work
[10] = named 1st inhibitor with 2nd inhibitor PRO 140, equimolar
[11] = named 1st inhibitor with 2nd inhibitor UK-427,857, equimolar

T1 sequence (P51681 whole entry): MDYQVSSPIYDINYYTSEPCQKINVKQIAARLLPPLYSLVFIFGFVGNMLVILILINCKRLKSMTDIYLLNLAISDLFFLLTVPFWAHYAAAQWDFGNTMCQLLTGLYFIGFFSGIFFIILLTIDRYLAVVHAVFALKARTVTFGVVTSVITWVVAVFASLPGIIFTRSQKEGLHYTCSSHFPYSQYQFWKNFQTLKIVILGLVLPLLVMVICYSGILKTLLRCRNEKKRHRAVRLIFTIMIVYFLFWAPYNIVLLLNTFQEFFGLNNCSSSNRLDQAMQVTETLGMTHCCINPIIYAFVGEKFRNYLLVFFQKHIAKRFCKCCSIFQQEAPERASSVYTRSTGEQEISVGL

In the case of `CCCCOCCOc1ccc(-c2ccc3c(c2)/C=C(/C(=O)Nc2ccc([S+]([O-])Cc4cncn4CCC)cc2)CCCN3CC(C)C)cc1` (centres unmarked) [TAK-652], the safety and tolerability [1] is given as “safe and well tolerated”.

With `COC[C@@H](c1ccc(C(F)(F)F)cc1)N1CCN(C2(C)CCN(C(=O)c3c(C)ncnc3C)CC2)C[C@@H]1C` [SCH-D] the C190 [2, 10] was 0.36 ± 0.06, the C190 [2, 11] was 0.75 ± 0.02 and the CI190 [3] was 0.18 ± 0.04. The CI190 [4] was 0.28 ± 0.11, the “impact on percent of cells gated for positive binding of PRO 140-PE” value (CCR5 [5]) was “little impact” and the “inhibition of PRO 140-PE binding to CEM.NKR-CCR5 cells” value (CCR5 [5]) was “modest levels of inhibition”. The “inhibition of 3H-UK-427,857 binding” value (CCR5 [6]) was “blocked ^3H-UK-427,857 binding to background levels”.

`Cc1cn([C@H]2C[C@H](N=[N+]=[N-])[C@@H](CO)O2)c(=O)[nH]c1=O` [zidovudine] showed a CI190 [3] of 0.85 ± 0.26 and a CI190 [4] of 1.0 ± 0.38.

For `Cc1ccc(-c2ccc3c(c2)C=C(C(=O)Nc2ccc(C[N+](C)(C)C4CCOCC4)cc2)CCC3)cc1.[Cl-]` [TAK-779], the local tolerability [7] is given as “local injection site irritation”.

Molecule `Cc1ccnc2c1NC(=O)c1cccnc1N2C1CC1` [nevirapine] has a CI190 [3] of 0.73 ± 0.28 and a CI190 [4] of 0.63 ± 0.19.

`COc1ccnc2[nH]cc(C(=O)C(=O)N3CCN(C(=O)c4ccccc4)C[C@H]3C)c12` [BMS-378806, (R)-N-(benzoyl)-3-methyl-N′-[(4-methoxy-7-azaindol-3-yl)-oxoacetyl]-piperazine] gave a C190 [2, 10] of 1.1 ± 0.22, a CI50 [2, 10] of 1.3 ± 0.19 and a CI190 [3] of 0.74 ± 0.23. It also gave a CI190 [4] of 0.82 ± 0.21.

For `Cc1nnc(C(C)C)n1C1CC2CCC(C1)N2CC[C@H](NC(=O)C1CCC(F)(F)CC1)c1ccccc1` (some centres unmarked) [UK-427,857], the “Mean CF” value [8] was 0.59 ± 0.04, the C190 [2, 10] was 0.40 ± 0.06 and the CI50 [2, 10] was 0.61 ± 0.5.

B1: PRO 140: humanized IgG4,kappa anti-CCR5 mAb; humanized version of the murine mAb PA14 (antibody, chains of the INN, looked up, V domains shown)
VH: EVQLVESGGGLVKPGGSLRLSCAASGYTFSNYWIGWVRQAPGKGLEWIGDIYPGGNYIRNNEKFKDKTTLSADTSKNTAYLQMNSLKTEDTAVYYCGSSFGSNYVFAWFTYWGQGTLVTVSS
VL: DIVMTQSPLSLPVTPGEPASISCRSSQRLLSSYGHTYLHWYLQKPGQSPQLLIYEVSNRFSGVPDRFSGSGSGTDFTLKISRVEAEDVGVYYCSQSTHVPLTFGQGTKVEIK
For B1, the CI190 [3] was 0.90 ± 0.15, the CI190 [4] was 0.86 ± 0.33 and the “binding of antibody 2D7 to CCR5 lymphocytes” value (CCR5 lymphocytes) was “significantly decreased”. The “inhibition of RANTES-induced calcium mobilization vs HIV-1JR-FL replication” value (CCR5 [9]) was “blocks HIV-1 but not chemokine signaling”, the “control of HIV-1 replication” value (HIV-1) was “prolonged control of HIV-1 replication without viral escape” and the “inhibition of PRO 140-PE binding to CEM.NKR-CCR5 cells” value (CCR5 [5]) was “Complete inhibition”. For the same molecule, the “inhibition of 3H-UK-427,857 binding” value (CCR5 [6]; in words) was “blocked ^3H-UK-427,857 binding to background levels”.

B2: RANTES: CC-chemokine that serves as a natural ligand for CCR5; purchased from R&D Systems (protein, UniProt P13501 24-91, looked up)
C-C motif chemokine 5: SPYSSDTTPCCFAYIARPLPRAHIKEYFYTSGKCSNPAVVFVTRKNRQVCANPEKKWVREYINSLEMS
With B2 the “Mean CF” value [8] was 0.59 ± 0.08, the “Mean Dose Reduction (Cpd in combination)” value ([8]; molar ratio 1:5) was 1.75 ± 0.28 and the “Mean Dose Reduction (Cpd in combination)” value ([8]; molar ratio 5:1) was 5.39 ± 1.13. It also gave a C190 [2, 10] of 0.43 ± 0.05 and a C190 [2, 11] of 0.18 ± 0.01.
